Experimental findings from patent publication US8946266B2, “Substituted triazole and imidazole derivatives as gamma secretase modulators” (Janssen Pharmaceuticals, Inc., priority 2009, dated 2015) are described below.

In assay [1] the test system is Aβ42. As to the kind of experiment: γ-secretase-modulating activity, Method 2: Aβ42 Alphalisa in supernatant of SKNBE2 cells carrying APP 695-wild type (Table 3b). The assay is classed as cell-based. The settings on record: overnight. The essentials: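 Aβ42 in the supernatant was quantified by AlphaLISA sandwich (JRF/cAβ42/26 with JRF/AβN/25). Cells were wild-type APP695 SKNBE2, exposed to compound overnight at 37° C., 5% CO2. Data were normalised to untreated maximum and fitted with a four-parameter curve to give IC50.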

The subject of assay [2] is Aβtotal. As to the kind of experiment: γ-secretase-modulating activity, Method 2: Aβtotal Alphalisa in supernatant of SKNBE2 cells carrying APP 695-wild type (Table 3b). To be noted: overnight, read-out: IC50 Aβtot. The assay is classed as cell-based. The essentials:
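Secreted Aβtotal was quantified by AlphaLISA pairing an N-terminal antibody (JRF/AβN/25) with biotinylated mid-region 4G8. Wild-type APP 695 SKNBE2 cells received serially varied compound overnight at 37 °C; IC50 came from a 4-parameter nonlinear regression of percent of control against log dose.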

In assay [3] the test system is Aβ42. The experiment in a line: In vivo efficacy, Method 2: brain soluble Aβ42 lowering 4 h after a single oral dose, ELISA (Table 4b). On the set-up: species or system mouse. The settings on record: dose 30 mg/kg oral dosing. The source says: (§1) To determine whether acute administration of an Aβ42 lowering agent would reduce Aβ42 levels in vivo, non-transgenic rodents, e.g. mice or rats were used. Animals treated with the Aβ42 lowering agent were examined and compared to those untreated or treated with vehicle and brain levels of soluble Aβ42 and total Aβ were quantitated by standard techniques, for example, using ELISA. Treatment periods varied from hours (h) to days and were adjusted based on the results of the Aβ42 lowering once a time course of onset of effect could be established.
(§2) A typical protocol for measuring Aβ42 lowering in vivo is shown but it is only one of many variations that could be used to optimize the levels of detectable Aβ. For example, Aβ42 lowering compounds were formulated in 20% of Captisol® (a sulfobutyl ether of β-cyclodextrin) in water or 20% hydroxypropyl β cyclodextrin. The Aβ42 lowering agents were administered as a single oral dose or by any acceptable route of administration to overnight fasted animals. After 4 h, the animals were sacrificed and Aβ42 levels were analysed.
(§3) Blood was collected by decapitation and exsanguinations in EDTA-treated collection tubes. Blood was centrifuged at 1900 g for 10 minutes (min) at 4° C. and the plasma recovered and flash frozen for later analysis. The brain was removed from the cranium and hindbrain. The cerebellum was removed and the left and right hemisphere were separated. The left hemisphere was stored at −18° C. for quantitative analysis of test compound levels. The right hemisphere was rinsed with phosphate-buffered saline (PBS) buffer and immediately frozen on dry ice and stored at −80° C. until homogenization for biochemical assays.
(§4) Mouse brains from non-transgenic animals were resuspended in 8 volumes of 0.4% DEA (diethylamine)/50 mM NaCl containing protease inhibitors (Roche-11873580001 or 04693159001) per gram of tissue, e.g. for 0.158 g brain, add 1.264 ml of 0.4% DEA. All samples were homogenized in the FastPrep-24 system (MP Biomedicals) using lysing matrix D (MPBio #6913-100) at 6 m/s for 20 seconds. Homogenates were centrifuged at 221.300×g for 50 min. The resulting high speed supernatants were then transferred to fresh eppendorf tubes. Nine parts of supernatant were neutralized with 1 part 0.5 M Tris-HCl pH 6.8 and used to quantify Aβtotal and Aβ42.
(§5) To quantify the amount of Aβtotal and Aβ42 in the soluble fraction of the brain homogenates, Enzyme-Linked-Immunosorbent-Assays were used. Briefly, the standards (a dilution of synthetic Aβ1-40 and Aβ1-42, Bachem) were prepared in 1.5 ml Eppendorf tube in Ultraculture, with final concentrations ranging from 10000 to 0.3 pg/ml. The samples and standards were co-incubated with HRPO-labelled N-terminal antibody for Aβ42 detection and with the biotinylated mid-domain antibody 4G8 for Aβtotal detection. 50 μl of conjugate/sample or conjugate/standards mixtures were then added to the antibody-coated plate (the capture antibodies selectively recognize the C-terminal end of Aβ42, antibody JRF/cAβ42/26, for Aβ42 detection and the N-terminus of Aβ, antibody JRF/rAβ/2, for Aβtotal detection). The plate was allowed to incubate overnight at 4° C. in order to allow formation of the antibody-amyloid complex. Following this incubation and subsequent wash steps the ELISA for Aβ42 quantification was finished by addition of Quanta Blu fluorogenic peroxidase substrate according to the manufacturer's instructions (Pierce Corp., Rockford, Ill.). A reading was performed after 10 to 15 min (excitation 320/emission 420).
In this model at least 20% Aβ42 lowering compared to untreated animals would be advantageous.
(§6) The results are shown in Table 4b (dose 30 mg/kg oral dosing): […]

Assay [4] concerns Aβtotal. The experiment in a line: In vivo efficacy, Method 2: brain soluble Aβtotal lowering 4 h after a single oral dose, ELISA (Table 4b). On the set-up: species or system mouse. The settings on record: dose 30 mg/kg oral dosing.
Description: as §1, §2, §3, §4, §5
For Aβtotal detection, a Streptavidine-Peroxidase-Conjugate was added, followed 60 min later by an additional wash step and addition of Quanta Blu fluorogenic peroxidase substrate according to the manufacturer's instructions (Pierce Corp., Rockford, Ill.). A reading was performed after 10 to 15 min (excitation 320 nm/emission 420 nm).
as §6

pIC50: −log10 of the molar value.

As to `COc1cc(-c2nc3n(n2)CCC[C@H]3c2ccc(F)cc2C)ccc1-n1cnc(C)c1.Cl` [Compound 315], the values for the negative-log IC50 (pIC50) in the assay with Aβ42 [1] and in the assay with Aβtotal [2] were 7.54 and below 5.00, respectively. In the assay on Aβ42 [3], the “Aβ42 (% Ctrl) _Mean” value turned out to be 49 % Ctrl. The “Aβtotal (% Ctrl) _Mean” value in the assay on Aβtotal [4] was determined as 10 % Ctrl.

As to `COc1cc(-c2nc(Nc3cc(C(F)(F)F)ccc3F)n(C)n2)ccc1-n1cnc(C)c1` [Compound 162], the pIC50 in the assay with Aβ42 [1] was 7.96; in the assay with Aβtotal [2], 5.44. Also, in the assay on Aβ42 [3], the “Aβ42 (% Ctrl) _Mean” value is recorded as 35 % Ctrl. Further, the “Aβtotal (% Ctrl) _Mean” value in the assay with Aβtotal [4] was 2 % Ctrl.

In the case of `COc1cc(-c2nc(Nc3cc(C(F)(F)F)ccc3Cl)n(C)n2)ccc1-n1cnc(C)c1` [Compound 177], the figures for the pIC50 with Aβ42 [1] and in the assay with Aβtotal [2] were 8.00 and below 5.00, respectively. For the same molecule, the “Aβ42 (% Ctrl) _Mean” value in the assay on Aβ42 [3] stood at 51 % Ctrl. Also, in the assay with Aβtotal [4], the “Aβtotal (% Ctrl) _Mean” value is reported as 11 % Ctrl.

Consider `COc1cc(-c2nc(Nc3cc([S+](C)[O-])ccc3F)n(C)n2)ccc1-n1cnc(C)c1` (racemic) [Compound 330], for which the results for the negative logarithm of the IC50 (pIC50) with Aβ42 [1] and in the assay on Aβtotal [2] were 6.22 and 7.17, respectively. Moreover, the “Aβ42 (% Ctrl) _Mean” value with Aβ42 [3] was −9 % Ctrl. In the assay with Aβtotal [4], the “Aβtotal (% Ctrl) _Mean” value is recorded as −2 % Ctrl.

Consider `COc1nc(-c2nc(Nc3cccc(Cl)c3)n(C)n2)ccc1-n1cnc(C)c1` [Compound 100], for which the pIC50 was 7.55 in the assay on Aβ42 [1] and below 5.00 in the assay on Aβtotal [2]. Moreover, the “Aβ42 (% Ctrl) _Mean” value with Aβ42 [3] came to 12 % Ctrl. The “Aβtotal (% Ctrl) _Mean” value in the assay on Aβtotal [4] is −4 % Ctrl.

For `COc1cc(-c2nc(Nc3cccc(Cl)c3C)n(C)n2)ccc1-n1cnc(C)c1` [Compound 129], the pIC50 in the assay with Aβ42 [1] was 7.60; in the assay with Aβtotal [2], below 5.00. The “Aβ42 (% Ctrl) _Mean” value in the assay on Aβ42 [3] amounted to 56 % Ctrl. Moreover, the “Aβtotal (% Ctrl) _Mean” value in the assay on Aβtotal [4] was 9 % Ctrl.

Take `COc1cc(-c2nc(Nc3cc(Cl)ccc3Cl)n(C)n2)ccc1-n1cnc(C)c1` [Compound 111]: the pIC50 in the assay with Aβ42 [1] is 7.89; in the assay on Aβtotal [2], below 5.00. In the assay on Aβ42 [3], the “Aβ42 (% Ctrl) _Mean” value was found to be 33 % Ctrl. In addition, the “Aβtotal (% Ctrl) _Mean” value in the assay with Aβtotal [4] came to 15 % Ctrl.

For `COc1cc(-c2nc(Nc3c(F)ccc(C(F)(F)F)c3F)n(C)n2)ccc1-n1cnc(C)c1` [Compound 211], the negative-log IC50 (pIC50) with Aβ42 [1] was 7.60; in the assay on Aβtotal [2], below 5.00. In addition, in the assay on Aβ42 [3], the “Aβ42 (% Ctrl) _Mean” value worked out at 32 % Ctrl. For the same molecule, the “Aβtotal (% Ctrl) _Mean” value with Aβtotal [4] is −1 % Ctrl.

Regarding `COc1cc(-c2nc(Nc3cc(N(C)C)ccc3F)n(C)n2)ccc1-n1cnc(C)c1` [Compound 180], the values for the pIC50 in the assay with Aβ42 [1] and in the assay with Aβtotal [2] were 7.66 and below 5.00, respectively. Also, the “Aβ42 (% Ctrl) _Mean” value with Aβ42 [3] came to 51 % Ctrl. The “Aβtotal (% Ctrl) _Mean” value in the assay with Aβtotal [4] worked out at 10 % Ctrl.

For the molecule `COc1nc(-c2nc(Nc3cc(OC(F)(F)F)ccc3F)n(C)n2)ccc1-n1cnc(C)c1` [Compound 184], the pIC50 in the assay with Aβ42 [1] was 7.89; in the assay on Aβtotal [2], below 4.82. For the same molecule, the “Aβ42 (% Ctrl) _Mean” value in the assay on Aβ42 [3] is reported as 69 % Ctrl. Also, the “Aβtotal (% Ctrl) _Mean” value in the assay on Aβtotal [4] stood at 15 % Ctrl.

As for `COc1cc(-c2nc(Nc3c(F)cccc3OC)n(C)n2)ccc1-n1cnc(C)c1` [Compound 214], the pIC50 with Aβ42 [1] is 6.77; in the assay with Aβtotal [2] it was below 5.00. In the assay with Aβ42 [3], the “Aβ42 (% Ctrl) _Mean” value is given as −15 % Ctrl. Besides, the “Aβtotal (% Ctrl) _Mean” value in the assay on Aβtotal [4] is 0 % Ctrl.

With `COc1cc(-c2nc(Nc3cc(C)ccc3C)n(C)n2)ccc1-n1cnc(C)c1` [Compound 198], the pIC50 was 7.89 in the assay with Aβ42 [1] and below 5.00 in the assay on Aβtotal [2]. The “Aβ42 (% Ctrl) _Mean” value in the assay with Aβ42 [3] is recorded as 55 % Ctrl. The “Aβtotal (% Ctrl) _Mean” value in the assay on Aβtotal [4] was found to be 6 % Ctrl.

Take `COc1cc(-c2nc3n(n2)CCCC3c2cc(OC(F)(F)F)ccc2F)ccc1-n1cnc(C)c1` (centres unmarked) [Compound 265]: the negative logarithm of the IC50 (pIC50) in the assay on Aβ42 [1] is 7.72; in the assay on Aβtotal [2], below 5.00. Besides, the “Aβ42 (% Ctrl) _Mean” value with Aβ42 [3] came out at 55 % Ctrl. Moreover, in the assay with Aβtotal [4], the “Aβtotal (% Ctrl) _Mean” value is reported as 22 % Ctrl.

For the molecule `COc1cc(-c2nc3n(n2)CCOC3c2ccccc2C(F)(F)F)ccc1-n1cnc(C)c1` (centres unmarked) [Compound 306], the pIC50 in the assay with Aβ42 [1] is 7.15; in the assay on Aβtotal [2] it was below 5.00. For the same molecule, the “Aβ42 (% Ctrl) _Mean” value with Aβ42 [3] (30 mg/kg) is listed as 22 % Ctrl. Moreover, the “Aβtotal (% Ctrl) _Mean” value in the assay with Aβtotal [4] (30 mg/kg) was −2 % Ctrl.
